According to patent publication US20090029367A1 (AstraZeneca AB, priority 2005, published 2009):

What was measured:
[1] = biological target: PON1 (Homo sapiens, UniProt P27169); settings: cited from earlier work
[2] = test system: alanine aminotransferase (ALAT); assay: ALAT elevation during longer-term treatment with ximelagatran (clinical trials); type: in vivo, human
Text: Phase III clinical trials have been performed using fixed doses of melagatran and ximelagatran for the prevention of VTE in hip or knee replacement surgery. In addition, clinical trials have been performed using ximelagatran for the treatment and long-term secondary prevention of VTE, and for the prevention of stroke in patients with non-valvular atrial fibrillation. Ximelagatran has also been tested for secondary thrombosis prophylaxis post-myocardial infarction/acute coronary syndrome (ACS).
Alanine aminotransferrase (ALAT) is an enzyme mostly expressed in the liver (EC 2.6.1.2). It is also called serum glutamate pyruvate transaminase (SGPT) or alanine transaminase (ALT). This enzyme is release into the plasma by liver cell death, which is a normal event. However, when liver cell death increases, ALAT levels rise above the normal range. The spill-over of this enzyme into blood is routinely measured as a marker of abnormal liver-cell damage. For example, alcoholic or viral hepatitis will increase ALAT levels, as will severe congestive heart failure. ALAT is also markedly raised in hepatitis and other acute liver damage. An elevated ALAT in the presence of normal levels of plasma alkaline phosphatase helps distinguish liver disease caused by liver-cell damage from diseases caused by problems in biliary ducts. Elevations of ALAT are normally measured in multiples of the upper limit of normal (ULN), with a reference range of 15-45 U/L in most laboratories. In 1987, in a study of 19,877 healthy Air Force recruits, only 99 (0.5%) had confirmed ALAT elevations (as reviewed in Green & Flamm (2002) Gastroenterology 123:1367-1384).
The increase in ALAT values with ximelagatran usually occurred within the first 6 months of treatment and were mainly asymptomatic. […] Subject to the future regulatory approval of ximelagatran, regular liver function testing (LFT) using an appropriate algorithm may be required if ximelagatran is used for treatment periods exceeding a month. […]

Sequence of PON1 (P27169 whole entry): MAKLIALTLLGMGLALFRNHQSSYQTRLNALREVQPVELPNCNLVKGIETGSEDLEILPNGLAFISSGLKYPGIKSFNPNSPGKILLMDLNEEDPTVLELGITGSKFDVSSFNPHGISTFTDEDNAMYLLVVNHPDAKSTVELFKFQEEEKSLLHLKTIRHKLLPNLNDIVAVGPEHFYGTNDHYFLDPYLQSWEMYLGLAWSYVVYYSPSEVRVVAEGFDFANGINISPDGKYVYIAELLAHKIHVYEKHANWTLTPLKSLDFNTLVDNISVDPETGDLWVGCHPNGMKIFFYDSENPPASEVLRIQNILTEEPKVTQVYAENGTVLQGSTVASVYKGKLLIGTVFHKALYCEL

SMILES	hydrolysis by PON1 [1]	patients exhibiting levels of alanine aminotransferase (ALAT) 3-fold or more above the upper limit of normal (≧3×ULN) ([2]; longer-term treatment (>35 days), 1.2% in the comparator groups) [%]	reversibility of ALAT increases ([2]; regardless of whether treatment was continued or discontinued)	time of occurrence of the increase in ALAT values ([2]; usually, of treatment, mainly asymptomatic) [months]
CC[C@H](C)C(=O)O[C@H]1C[C@@H](C)C=C2C=C[C@H](C)[C@H](CC[C@@H]3C[C@@H](O)CC(=O)O3)[C@H]21 [lovastatin]	hydrolyzed by PON1			
CCOC(=O)CN[C@@H](C(=O)N1CC[C@H]1C(=O)NCc1ccc(/C(N)=N\O)cc1)C1CCCCC1 [ximelagatran, EtOOC—CH2—(R)Cgl-Aze-Pab-OH]		7.9	reversible in most patients	≤ 6
CC[C@H](C)C(=O)O[C@H]1CCC=C2C=C[C@H](C)[C@H](CC[C@@H]3C[C@@H](O)CC(=O)O3)[C@H]21 [mevastatin]	hydrolyzed by PON1			
CC(=O)S[C@@H]1CC2=CC(=O)CC[C@]2(C)[C@H]2CC[C@@]3(C)[C@@H](CC[C@@]34CCC(=O)O4)[C@H]12 [spironolactone]	hydrolyzed by PON1			
